Results as given in patent US6384063B1, “Compound having effect of promoting neuron differentiation” (Nippon Kayaku Kabushiki Kaisha, priority 1997, dated 2002).
Entries after “also recorded” stand apart in the source; their conditions may differ.

Tested on: not listed separately
Assay: Solubility of NA32176A (physicochemical properties)
Details: qualitative, by solvent; listed as NA32176A
From the text: Physicochemical properties of the thus obtained physiologically active substance NA32176A are shown below.

For `CC(C)(CO)C(O)C(=O)NCCC(=O)NCCSCC1C(=O)CCC1C(=O)O` [Compound 1E, (1R,2S)-2-[N-(panthoyl- -alanylamido)ethylthio]methyl-3-oxo-1-cyclopentanecarboxylic Acid], the Solubility was “soluble in a lower alcohol, water or dimethylsulfoxide; also recorded: insoluble in hexane or petroleum ether”.

Tested on: PC12 cells
Assay: Neuron-like neurite extension on PC12 cells
Format: cell-based, rat
Details: morphological change observed microscopically one day after adding test compound
From the text: Neuron-like neurite extension effect of the compounds of this invention on PC12 cells
The effect of the compounds of the invention was examined by a modification of the method of Green et al., Ann. Rev. Neurosci., 3, 353, 1980, and evaluated in terms of morphological change of PC12 cells and a level of the change. That is, PC12 cells were inoculated on Dulbecco-modified Eagle's medium supplemented with 10% calf fetal serum and 10% equine serum in approximately 100,000 cells/ml. The cells were incubated at 37° C. overnight in 5% CO2 using collagen-coated 96 well multiplates. Morphological change of the cells was microscopically observed one day after the test compound was added to each well under this conditions.
The minimum effective dose (MED, g/ml) of each compound on PC12 cells that caused neuron-like neurite extension is shown in Table 2 below.

In order of falling Minimum effective dose (MED) to cause neuron-like neurite extension on PC12 cells:
1. COC(=O)[C@H](CSCC(CC(=O)O)C(=O)c1ccc(OC)cc1)NC(C)=O (stereo partly drawn) [Compound 9D, 3-[(2R)-(2-acetylamino-2-methoxycarbonyl)ethylthio]methyl-4-(4-methoxyphenyl)-4-oxobutyric Acid]  50 µg/mL
2. COC(=O)[C@H](CSCC1C(=O)c2ccccc2C1C(=O)O)NC(C)=O (stereo partly drawn) [Compound 6A, 2-((2R)-(2-acetylamino-2-methoxycarbonyl)ethylthio)methyl-3-oxo-1-indanecarboxylic Acid]  25 µg/mL
3. 3-{2-(acetylamino)ethylthio}methyl-4-(4-methylphenyl)-4-oxobutyric Acid [Compound 12D]  13 µg/mL
4. COC(=O)[C@H](CSCC(CC(=O)O)C(=O)c1ccc(C)cc1)NC(C)=O (stereo partly drawn) [Compound 13D, 3-{(2R)-(2-acetylamino-2-methoxycarbonyl)ethylthio}methyl-4-(4-methylphenyl)-4-oxobutyric Acid]  13 µg/mL
5. CC(=O)N[C@@H](CSCC(CC(=O)O)C(=O)c1ccccc1)C(=O)O (stereo partly drawn) [Compound 7D, 3-[(2R)-(2-acetylamino-2-carboxy)ethylthio]methyl-4-oxo-4-phenylbutyric Acid]  13 µg/mL
6. CC(=O)NC(CCCCCCCCCCSC[C@@H]1C(=O)CC[C@H]1C(=O)O)C(=O)O (relative stereo) [Compound 9B, trans-2-[(11-acetylamino-11-carboxy)undecylthio]methyl-3-oxo-1-cyclopentanecarboxylic acid]  6.3 µg/mL
7. COC(=O)[C@H](CSCC(CC(=O)O)C(=O)c1ccccc1)NC(C)=O (stereo partly drawn) [Compound 8D, 3-[(2R)-(2-acetylamino-2-methoxycarbonyl)ethylthio]methyl-4-oxo-4-phenylbutyric Acid]  6.3 µg/mL
8. 2-methyl-4-oxo-4-phenyl-3-(1-piperazinyl)methylbutyric Acid [Compound 41F]  6.3 µg/mL
9. CC(=O)N[C@@H](CSCC1=C[C@H](O)CC1=O)C(=O)O [Compound 2C, (4R)-2-[(2R)-(2-acetylamino-2-carboxy)ethylthio]methyl-4-hydroxy-2-cyclopenten-1-one]  6.3 µg/mL
10. CC(=O)N[C@@H](CSCC(CCC(=O)O)C(=O)c1ccccc1)C(=O)O (stereo partly drawn) [Compound 38D, 4-[(2R)-{(2-acetylamino-2-carboxy)ethylthio}]methyl-5-oxo-5-phenylpentanoic acid]  6.3 µg/mL
11. (1R,2S)-2-[(2R)-({2-carboxy-2-pentafluoropropionylamino)ethylthio]methyl-3-oxo-1-cyclopentanecarboxylic acid [Compound 4B]  3.2 µg/mL
12. COC(=O)[C@H](CSCC1CC(C(=O)O)CC1=O)NC(C)=O (stereo partly drawn) [Compound 2A, 4-[(2R)-(2-acetylamino-2-methoxycarbonyl)ethylthio]methyl-3-oxo-1-cyclopentanecarboxylic Acid]  3.2 µg/mL
13. CC(=O)N[C@@H](CSCC1CC(C(=O)O)CC1=O)C(=O)O (stereo partly drawn) [Compound 1A, 4-[(2R)-(2-acetylamino-2-carboxy)ethylthio]methyl-3-oxo-1-cyclopentanecarboxylic Acid]  3.2 µg/mL
14. CC(=O)N[C@@H](CSC[C@@H]1C(=O)CC[C@H]1C(=O)O)C(=O)N1CCCC1 [Compound 1B, (1R,2S)-2-[(2R)-{2-acetylamino-3-oxo-3-(1-pyrrolidinyl)}propylthio]methyl-3-oxo-1-cyclopentanecarboxylic Acid]  3.2 µg/mL
15. CN1CCN(CC(CC(=O)O)C(=O)c2ccccc2)CC1 (stereo not shown) [Compound 6F, 3-{1-(4-methylpiperazinyl)}methyl-4-oxo-4-phenylbutyric acid]  3.1 µg/mL
16. 4-(4-methoxyphenyl)-4-oxo-3-(1-piperidyl)methylbutyric Acid [Compound 3F]  3.1 µg/mL
17. COC(=O)[C@H](CSCC(CC(=O)O)C(=O)c1cccnc1)NC(C)=O (stereo partly drawn) [Compound 32D, 3-[(2R)-(2-acetylamino-2-methoxycarbonyl)ethylthio]methyl-4-oxo-4-(3-pyridyl)butyric Acid]  3.1 µg/mL
18. COC(=O)[C@@H]1CCN1C(=O)[C@H](CSC[C@@H]1C(=O)CC[C@H]1C(=O)O)NC(C)=O (relative stereo) [Compound 7B, trans-2-[(2R)-[2-acetylamino-3-{1-((2S)-2-methoxycarbonylazetidinyl)}-3-oxo]propylthio]methyl-3-oxo-1-cyclopentanecarboxylic Acid]  3.1 µg/mL
19. 4-(4-methylphenyl)-4-oxo-3-(1-piperidyl)methylbutyric Acid [Compound 2F]  3.1 µg/mL
20. C[n+]1cccc(CCCSCC2C(=O)CCC2C(=O)O)c1.[I-] [Compound 15B, (1R,2S)-2-[3-{3-(1-methylpyridinium iodide)}propylthio]methyl-3-oxo-1-cyclopentanecarboxylic Acid]  3.1 µg/mL
21. CC(=O)N[C@@H](CSC[C@@H]1C(=O)CC[C@H]1C(=O)O)C(=O)N1CCN(c2ccccc2)CC1 [Compound 13B, (1R,2S)-2-[(2R)-2-acetylamino-3-oxo-3-{1-(4-phenyl)piperazinyl}propylthio]methyl-3-oxo-1-cyclopentanecarboxylic Acid]  1.6 µg/mL
22. 4-(1-piperazinyl)methyl-5-oxo-5-phenylpentanoic Acid [Compound 42F]  1.6 µg/mL
23. COC(=O)[C@@H]1CCCN1C(=O)[C@H](CSC[C@@H]1C(=O)CC[C@H]1C(=O)O)NC(C)=O (relative stereo) [Compound 6B, trans-2-[(2R)-[2-acetylamino-3-{1-((2S)-2-methoxycarbonylpyrrolidinyl)}-3-oxo]propylthio]methyl-3-oxo-1-cyclopentanecarboxylic Acid]  1.6 µg/mL
24. CC(=O)N[C@@H](CSC[C@@H]1C(=O)CC[C@H]1C(=O)O)C(=O)N1CCOCC1 [Compound 2B, (1R,2S)-2-[(2R)-{2-acetylamino-3-(4-morpholinyl)-3-oxo}propylthio]methyl-3-oxo-1-cyclopentanecarboxylic Acid]  1.6 µg/mL
25. trans-2-[(2R)-(2-carboxy-2-pentafluoropropionylamino)ethylthio]methyl-3-hydroxymethyl-1-cyclopentanone [Compound 8B]  0.8 µg/mL
26. COC(=O)[C@@H]1CCC(=O)[C@H]1CSC[C@H](NC(C)=O)C(=O)N1CCCC1 (relative stereo) [Compound 5B, trans-2-[(2R)-{2-acetylamino-3-oxo-3-(1-pyrrolidinyl)}propylthio]methyl-3-methoxycarbonyl-1-cyclopentanone]  0.8 µg/mL

Tested on: PC 12 cells
Assay: not given
Details: qualitative, background art; cited from earlier work

In the case of `CN[C@@H]1C[C@H]2O[C@@](C)([C@@H]1OC)n1c3ccccc3c3c4c(c5c6ccccc6n2c5c31)C(=O)NC4` [staurosporin], the “PC 12 cell differentiation promoting activity” value is listed as “found to have the PC 12 cell differentiation promoting activity”.
